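Step 1: Grow cells in 96-well plates. Step 2: Expose to compound for 48 hours at 5 concentrations. Step 3: Interpolate endpoints linearly; if unreached, use highest concentration. GI50: concentration for 50% inhibition of growth.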 Calls of active or inactive are those of the source. No stated cut-off is given here; in the data, active = GI50 up to about 1.1 µM and inactive = higher.

Some test systems named below: ACHN; BT-549; HCC 2998; HCT-15; HT-29; IGROV-1; LOX IMVI; MDA-N; Malme-3M; NCI-H460; NCI-H522; NCI/ADR-RES; OVCAR-8; RXF 393; SK-MEL-28; SK-MEL-2; TK-10; UACC-62; SNB-75; UO-31.
Holding throughout (experiment): NCI anticancer screen, dose series, 48 h

Take `COc1ccc(OCC(=N/NC(=O)c2ccncc2)/N=C/c2ccncc2)cc1`: the GI50 with ACHN is > 100 µM (inactive); with BT-549 it was > 100 µM (inactive); in the test with HCC 2998, > 100 µM (inactive); in the test on HCT-15, 51.5 µM; in the test with HT-29, 57 µM (inactive); with IGROV-1 it was 91.2 µM (inactive). The GI50 with LOX IMVI is > 100 µM (inactive); in the test with MDA-N it was 17.6 µM (inactive); in the test on Malme-3M, > 100 µM (inactive); in the test on NCI-H460 it was > 100 µM (inactive); with NCI-H522 it was 32.2 µM (inactive); in the test on NCI/ADR-RES, 77.6 µM (inactive). In addition, the GI50 was > 100 µM (inactive) in the test on OVCAR-8; 36.3 µM (inactive) in the test with RXF 393; 75.5 µM (inactive) in the test with SK-MEL-28; > 100 µM (inactive) in the test with SK-MEL-2; > 100 µM (inactive) in the test on TK-10; 53.6 µM (inactive) in the test with UACC-62.
For the molecule `Cn1c(=O)c2c(nc3n(Cc4ccccc4)c(=O)c(NCCBr)cn23)n(C)c1=O`, the GI50 with ACHN was 15.4 µM (inactive); in the test with BT-549 it was 28.4 µM (inactive); in the test with HCC 2998, 16.1 µM (inactive); in the test on HCT-15, 34.8 µM; in the test on HT-29, 41.2 µM (inactive); with IGROV-1 it was 33 µM (inactive). Further, the GI50 is 28.4 µM (inactive) in the test on LOX IMVI; 57.3 µM (inactive) in the test on MDA-N; 26.9 µM (inactive) in the test on NCI-H460; 22.2 µM (inactive) in the test with NCI-H522; 21.8 µM (inactive) in the test on NCI/ADR-RES; 14.7 µM (inactive) in the test on OVCAR-8. Moreover, the GI50 with RXF 393 is 14.9 µM (inactive); in the test with SK-MEL-28, 53.5 µM (inactive); with SK-MEL-2, 17.2 µM (inactive); in the test on SNB-75 it was 20 µM (inactive); in the test with TK-10 it was 16.3 µM (inactive); in the test with UACC-62 it was 26.5 µM (inactive). For the same molecule, in the test on UO-31, the GI50 was 13 µM (inactive).
In the case of `COc1cc(Oc2c(C)c(Cl)c(OC)c(Cl)c2OC)c2c(c1Cl)COC2=O`, the GI50 is 12.9 µM (inactive) with ACHN; 43.6 µM (inactive) with BT-549; 26.6 µM (inactive) in the test with HCC 2998; 13.9 µM with HCT-15; 9.23 µM (inactive) in the test on HT-29; 17.6 µM (inactive) with IGROV-1. For the same molecule, the GI50 is 17 µM (inactive) with LOX IMVI; 14.3 µM (inactive) with MDA-N; 15.2 µM (inactive) with Malme-3M; 10.7 µM (inactive) with NCI-H460; 11.5 µM (inactive) in the test on NCI-H522; 17.1 µM (inactive) with NCI/ADR-RES. The GI50 was 17.6 µM (inactive) in the test with OVCAR-8; 35.6 µM (inactive) in the test with RXF 393; 62.2 µM (inactive) in the test on SK-MEL-28; 41.9 µM (inactive) in the test with SNB-75; 71.3 µM (inactive) with TK-10; 33.7 µM (inactive) with UACC-62. In addition, the GI50 in the test on UO-31 was 10.8 µM (inactive).
For the molecule `Cc1ccsc1/C=N/Nc1ccccn1`, the GI50 with ACHN is 74.6 µM (inactive); with BT-549, > 100 µM (inactive); in the test with HCC 2998 it was 99.5 µM (inactive); in the test with HCT-15 it was 60.1 µM; in the test with HT-29 it was 32.8 µM (inactive); with IGROV-1, 16.9 µM (inactive). Further, the GI50 in the test on LOX IMVI is 37.2 µM (inactive); with MDA-N it was 50.6 µM (inactive); with Malme-3M, 34.8 µM (inactive); with NCI/ADR-RES, 45.3 µM (inactive); in the test on OVCAR-8, 66.1 µM (inactive); in the test on RXF 393, > 100 µM (inactive). The GI50 with SK-MEL-28 is 98.6 µM (inactive); in the test on SK-MEL-2, 34.3 µM (inactive); with SNB-75, 50.2 µM (inactive); with TK-10, 57.3 µM (inactive); with UACC-62 it was 74 µM (inactive); with UO-31, 71.3 µM (inactive).
Turning to `CN(/N=C/c1cccs1)c1ccc(Cl)cc1[N+](=O)[O-]`, the GI50 in the test on ACHN was 40 µM (inactive); with BT-549, 40.6 µM (inactive); in the test with HCC 2998, 25.8 µM (inactive); in the test with HCT-15 it was 10.6 µM; in the test with HT-29, 25.9 µM (inactive); in the test on IGROV-1, > 100 µM (inactive). Further, the GI50 was 3.84 µM (inactive) in the test with MDA-N; 23.3 µM (inactive) with NCI-H460; 22.6 µM (inactive) with NCI-H522; 18.9 µM (inactive) in the test with NCI/ADR-RES; 40.5 µM (inactive) in the test on OVCAR-8; 23.6 µM (inactive) in the test on RXF 393. Moreover, the GI50 in the test with SK-MEL-28 was 78.5 µM (inactive); in the test on SNB-75, 30.8 µM (inactive); in the test on TK-10, 35.2 µM (inactive); with UACC-62, 47 µM (inactive); in the test on UO-31 it was 36.9 µM (inactive).
On to `O=[N+]([O-])C(=C(Nc1ccccc1)Nc1ccccc1)/C(Cl)=C(\Cl)[N+](=O)[O-]`, for which the GI50 is 2.61 µM (inactive) with ACHN; 3.71 µM (inactive) with BT-549; 12.2 µM (inactive) in the test with HCC 2998; 2.7 µM in the test with HCT-15; 3.27 µM (inactive) in the test with HT-29; 2.92 µM (inactive) in the test with LOX IMVI. Moreover, the GI50 in the test on MDA-N was 2.77 µM (inactive); with Malme-3M, 3.54 µM (inactive); with NCI-H460 it was 14.7 µM (inactive); in the test on NCI/ADR-RES, 3.81 µM (inactive); in the test on OVCAR-8 it was 1.44 µM (inactive); in the test with RXF 393, 1.89 µM (inactive). Further, the GI50 in the test with SK-MEL-28 was 3.62 µM (inactive); in the test on SK-MEL-2, 9.84 µM (inactive); in the test with SNB-75 it was 7.57 µM (inactive); in the test on TK-10, 5.16 µM (inactive); with UACC-62, 4.58 µM (inactive); with UO-31 it was 3.07 µM (inactive).
With `O=c1[nH]cnc2cccc(Cl)c12`, the GI50 is > 100 µM (inactive) with ACHN; > 100 µM (inactive) with BT-549; > 100 µM (inactive) with HCC 2998; greater than 100 µM in the test with HCT-15; > 100 µM (inactive) with HT-29; > 100 µM (inactive) in the test on IGROV-1. Further, the GI50 in the test on MDA-N, with Malme-3M, in the test on NCI-H460, in the test with NCI-H522, in the test with NCI/ADR-RES and in the test on OVCAR-8 was > 100 µM (inactive) throughout. In addition, the GI50 in the test on RXF 393 is > 100 µM (inactive); in the test with SK-MEL-28, > 100 µM (inactive); in the test on SK-MEL-2, > 100 µM (inactive); with SNB-75, 65.2 µM (inactive); in the test with TK-10 it was > 100 µM (inactive); in the test with UACC-62, > 100 µM (inactive). Moreover, the GI50 in the test on UO-31 is > 100 µM (inactive).
Regarding `CN(C)CCN1C(=O)CC[C@@]2(C)C1=CC[C@@H]1[C@@H]2CC[C@@]2(C)[C@H]1CC[C@]2(C)O`, the GI50 with ACHN was > 100 µM (inactive); in the test on BT-549 it was > 100 µM (inactive); in the test on HCT-15, greater than 100 µM; in the test with HT-29, 39.8 µM (inactive); with IGROV-1 it was > 100 µM (inactive); in the test with LOX IMVI, > 100 µM (inactive). In addition, the GI50 in the test on MDA-N, in the test with Malme-3M, in the test with NCI-H460, in the test with NCI-H522, with NCI/ADR-RES and in the test on OVCAR-8 was > 100 µM (inactive) throughout. Also, the GI50 in the test with RXF 393, in the test on SK-MEL-28, with SK-MEL-2, in the test on SNB-75, in the test with TK-10 and in the test on UACC-62 was > 100 µM (inactive) in each case. Also, in the test on UO-31, the GI50 was > 100 µM (inactive).
In the case of `CC1(CCCC2(C)CCNC2=O)OCCO1` (centres undefined), the GI50 with ACHN was > 10 µM (inactive); in the test on BT-549 it was > 10 µM (inactive); in the test on HCC 2998, > 10 µM (inactive); in the test on HCT-15, greater than 10 µM; with HT-29, > 10 µM (inactive); in the test with IGROV-1, > 10 µM (inactive). Moreover, the GI50 in the test with LOX IMVI, with MDA-N, in the test on Malme-3M, in the test on NCI-H460, in the test with NCI/ADR-RES and with OVCAR-8 was > 10 µM (inactive) in each case. The GI50 in the test on RXF 393, in the test on SK-MEL-28, in the test with SK-MEL-2, in the test with SNB-75, with TK-10 and in the test with UACC-62 was > 10 µM (inactive) throughout. Also, in the test with UO-31, the GI50 was > 10 µM (inactive).
Take `COC(=O)/C=C(\C)CC(O)/C=C(\C)CCC=C(C)C` (centres undefined): the GI50 in the test with ACHN is 64.7 µM (inactive); in the test on BT-549, 31.2 µM (inactive); in the test on HCC 2998, 27.9 µM (inactive); in the test with HCT-15 it was 58.6 µM; in the test with HT-29, 24.1 µM (inactive); with IGROV-1, > 100 µM (inactive). The GI50 is 29.4 µM (inactive) in the test on LOX IMVI; 35.5 µM (inactive) with MDA-N; 39.6 µM (inactive) in the test on Malme-3M; 49.7 µM (inactive) in the test on NCI-H460; 16.2 µM (inactive) with NCI/ADR-RES; 22.3 µM (inactive) with OVCAR-8. The GI50 is 31.7 µM (inactive) with RXF 393; 69 µM (inactive) in the test on SK-MEL-28; 19.1 µM (inactive) in the test with SK-MEL-2; 9.44 µM (inactive) in the test with SNB-75; 55.8 µM (inactive) with TK-10; 40.7 µM (inactive) in the test with UACC-62. Besides, the GI50 in the test with UO-31 is 33.5 µM (inactive).
In the case of `Cc1n[n+](CC(=O)c2ccccc2)c2sc(N)nn12`, the GI50 with ACHN is > 100 µM (inactive); in the test on BT-549, > 100 µM (inactive); with HCT-15 it was greater than 100 µM; in the test with HT-29, > 100 µM (inactive); in the test on IGROV-1, > 100 µM (inactive); in the test with LOX IMVI it was > 100 µM (inactive). For the same molecule, the GI50 in the test on MDA-N, with Malme-3M, in the test with NCI-H460, in the test with NCI-H522, with NCI/ADR-RES and in the test with OVCAR-8 was > 100 µM (inactive) in each case. Also, the GI50 in the test with RXF 393, in the test on SK-MEL-28, in the test on SK-MEL-2, in the test on SNB-75, in the test on TK-10 and in the test with UACC-62 was > 100 µM (inactive) each time. Moreover, the GI50 with UO-31 is > 100 µM (inactive).

The values are drawn from ChEMBL document CHEMBL1201862, “PubChem BioAssay data set” (2004).
